From US7118895B2, “Process for producing aglycon by using diglycosidase and flavor-improved food containing the aglycon and converting agent to be used in the process” (Amano Enzyme Inc., priority 2000, dated 2006)

How the values were obtained:
[1] = system: β-Glucosidase derived from almond; experiment: Reactivity toward various isoflavone glycosides (HPLC); assay type: biochemical; parameters: unit not given here; conditions: 55 °C, pH 4.0
In short: (§1)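 Enzymes at 0.75 AU/mL in pH 4.0 acetate buffer were reacted at 55° C with individual isoflavone glycosides (substrate stock 2 mM in methanol) in 20 mM acetate pH 4.0. Aglycone release followed at 0, 1, 3 and 6 h: ethanol-quenched, ODS HPLC with UV 260 nm, quantified against calibration curves.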

[2] = system: β-Xylosidase derived from pectinase G; experiment: as above; assay type: biochemical; parameters: unit not given here; conditions: 55 °C, pH 4.0
In short: as §1

Crude diglycosidase = experiment: Examination of substrate concentration in the conversion into isoflavone aglycons by diglycosidase using soybean materials; assay type: biochemical, Penicillium multicolor IAM7153;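 further: percent of the isoflavone family total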
In short: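 Soybean materials (roasted soy flour, soymilk, defatted soybean, concentrated soy protein) at 2–30% (w/v) in 20 mM acetate pH 4.0 were reacted with crude diglycosidase at 55° C with shaking; enzyme solution added was 1.88 AU/mL. Samples taken at 0, 1, 3 and 6 h were ethanol-extracted and analyzed by HPLC.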

In the case of `COc1cc2c(=O)c(-c3ccc(O)cc3)coc2cc1O[C@@H]1O[C@H](CO)[C@@H](O)[C@H](O)[C@H]1O` [glycitin], the aglycon ([1]; Reaction time 0 h) was 0, the glucoside ([1]; Reaction time 0 h) was 100 and the aglycon ([1]; Reaction time 1 h) was 1.6. For the same compound, the glucoside ([1]; Reaction time 1 h) was 98.4, the aglycon ([1]; Reaction time 3 h) was 1.9 and the glucoside ([1]; Reaction time 3 h) was 98.1. For the same compound, the aglycon ([1]; Reaction time 6 h) was 1.9, the glucoside ([1]; Reaction time 6 h) was 98.1 and the aglycon ([2]; Reaction time 0 h) was 0. It also gave a glucoside ([2]; Reaction time 0 h) of 100, an aglycon ([2]; Reaction time 1 h) of 0.8 and a glucoside ([2]; Reaction time 1 h) of 99.2. It also gave an aglycon ([2]; Reaction time 3 h) of 2.4, a glucoside ([2]; Reaction time 3 h) of 97.6 and an aglycon ([2]; Reaction time 6 h) of 4.5. The glucoside ([2]; Reaction time 6 h) was 95.5, the “Decomposition efficiency: ratio of each glycoside/aglycon within its isoflavone family” value (Crude diglycosidase; concentrated soybean protein, substrate concentration 2%, heat treatment of enzyme no, reaction time 0 h) was 52.2% and the “Decomposition efficiency: ratio of each glycoside/aglycon within its isoflavone family” value (Crude diglycosidase; concentrated soybean protein, substrate concentration 2%, heat treatment of enzyme no, reaction time 1 h) was “not detected”. The “Decomposition efficiency: ratio of each glycoside/aglycon within its isoflavone family” value (Crude diglycosidase; concentrated soybean protein, substrate concentration 2%, heat treatment of enzyme no, reaction time 3 h) was “not detected”, the “Decomposition efficiency: ratio of each glycoside/aglycon within its isoflavone family” value (Crude diglycosidase; concentrated soybean protein, substrate concentration 2%, heat treatment of enzyme no, reaction time 6 h) was “not detected” and the “Decomposition efficiency: ratio of each glycoside/aglycon within its isoflavone family” value (Crude diglycosidase; concentrated soybean protein, substrate concentration 2%, heat treatment of enzyme yes, reaction time 6 h) was 53.4%. The “Decomposition efficiency: ratio of each glycoside/aglycon within its isoflavone family” value (Crude diglycosidase; concentrated soybean protein, substrate concentration 5%, heat treatment of enzyme no, reaction time 0 h) was 52.9%, the “Decomposition efficiency: ratio of each glycoside/aglycon within its isoflavone family” value (Crude diglycosidase; concentrated soybean protein, substrate concentration 5%, heat treatment of enzyme no, reaction time 1 h) was “not detected” and the “Decomposition efficiency: ratio of each glycoside/aglycon within its isoflavone family” value (Crude diglycosidase; concentrated soybean protein, substrate concentration 5%, heat treatment of enzyme no, reaction time 3 h) was “not detected”. For the same compound, the “Decomposition efficiency: ratio of each glycoside/aglycon within its isoflavone family” value (Crude diglycosidase; concentrated soybean protein, substrate concentration 5%, heat treatment of enzyme no, reaction time 6 h) was “not detected”, the “Decomposition efficiency: ratio of each glycoside/aglycon within its isoflavone family” value (Crude diglycosidase; concentrated soybean protein, substrate concentration 5%, heat treatment of enzyme yes, reaction time 6 h) was 54.0% and the “Decomposition efficiency: ratio of each glycoside/aglycon within its isoflavone family” value (Crude diglycosidase; concentrated soybean protein, substrate concentration 10%, heat treatment of enzyme no, reaction time 0 h) was 52.9%. The “Decomposition efficiency: ratio of each glycoside/aglycon within its isoflavone family” value (Crude diglycosidase; concentrated soybean protein, substrate concentration 10%, heat treatment of enzyme no, reaction time 1 h) was 1.6%, the “Decomposition efficiency: ratio of each glycoside/aglycon within its isoflavone family” value (Crude diglycosidase; concentrated soybean protein, substrate concentration 10%, heat treatment of enzyme no, reaction time 3 h) was “not detected” and the “Decomposition efficiency: ratio of each glycoside/aglycon within its isoflavone family” value (Crude diglycosidase; concentrated soybean protein, substrate concentration 10%, heat treatment of enzyme no, reaction time 6 h) was “not detected”. For the same compound, the “Decomposition efficiency: ratio of each glycoside/aglycon within its isoflavone family” value (Crude diglycosidase; concentrated soybean protein, substrate concentration 10%, heat treatment of enzyme yes, reaction time 6 h) was 53.4%, the “Decomposition efficiency: ratio of each glycoside/aglycon within its isoflavone family” value (Crude diglycosidase; concentrated soybean protein, substrate concentration 20%, heat treatment of enzyme no, reaction time 0 h) was 53.1% and the “Decomposition efficiency: ratio of each glycoside/aglycon within its isoflavone family” value (Crude diglycosidase; concentrated soybean protein, substrate concentration 20%, heat treatment of enzyme no, reaction time 1 h) was 13.2%. The “Decomposition efficiency: ratio of each glycoside/aglycon within its isoflavone family” value (Crude diglycosidase; concentrated soybean protein, substrate concentration 20%, heat treatment of enzyme no, reaction time 3 h) was “not detected”, the “Decomposition efficiency: ratio of each glycoside/aglycon within its isoflavone family” value (Crude diglycosidase; concentrated soybean protein, substrate concentration 20%, heat treatment of enzyme no, reaction time 6 h) was “not detected” and the “Decomposition efficiency: ratio of each glycoside/aglycon within its isoflavone family” value (Crude diglycosidase; concentrated soybean protein, substrate concentration 20%, heat treatment of enzyme yes, reaction time 6 h) was 52.8%. The “Decomposition efficiency: ratio of each glycoside/aglycon within its isoflavone family” value (Crude diglycosidase; concentrated soybean protein, substrate concentration 30%, heat treatment of enzyme no, reaction time 0 h) was 57.5%, the “Decomposition efficiency: ratio of each glycoside/aglycon within its isoflavone family” value (Crude diglycosidase; concentrated soybean protein, substrate concentration 30%, heat treatment of enzyme no, reaction time 1 h) was 2.0% and the “Decomposition efficiency: ratio of each glycoside/aglycon within its isoflavone family” value (Crude diglycosidase; concentrated soybean protein, substrate concentration 30%, heat treatment of enzyme no, reaction time 3 h) was “not detected”. The “Decomposition efficiency: ratio of each glycoside/aglycon within its isoflavone family” value (Crude diglycosidase; concentrated soybean protein, substrate concentration 30%, heat treatment of enzyme no, reaction time 6 h) was “not detected”, the “Decomposition efficiency: ratio of each glycoside/aglycon within its isoflavone family” value (Crude diglycosidase; concentrated soybean protein, substrate concentration 30%, heat treatment of enzyme yes, reaction time 6 h) was 58.0% and the “Decomposition efficiency: ratio of each glycoside/aglycon within its isoflavone family” value (Crude diglycosidase; defatted soybean, substrate concentration 2%, heat treatment of enzyme no, reaction time 0 h) was “not detected”. For the same compound, the “Decomposition efficiency: ratio of each glycoside/aglycon within its isoflavone family” value (Crude diglycosidase; defatted soybean, substrate concentration 2%, heat treatment of enzyme no, reaction time 1 h) was “not detected”, the “Decomposition efficiency: ratio of each glycoside/aglycon within its isoflavone family” value (Crude diglycosidase; defatted soybean, substrate concentration 2%, heat treatment of enzyme no, reaction time 3 h) was “not detected” and the “Decomposition efficiency: ratio of each glycoside/aglycon within its isoflavone family” value (Crude diglycosidase; defatted soybean, substrate concentration 2%, heat treatment of enzyme no, reaction time 6 h) was “not detected”. The “Decomposition efficiency: ratio of each glycoside/aglycon within its isoflavone family” value (Crude diglycosidase; defatted soybean, substrate concentration 2%, heat treatment of enzyme yes, reaction time 6 h) was “not detected”, the “Decomposition efficiency: ratio of each glycoside/aglycon within its isoflavone family” value (Crude diglycosidase; defatted soybean, substrate concentration 5%, heat treatment of enzyme no, reaction time 0 h) was “not detected” and the “Decomposition efficiency: ratio of each glycoside/aglycon within its isoflavone family” value (Crude diglycosidase; defatted soybean, substrate concentration 5%, heat treatment of enzyme no, reaction time 1 h) was “not detected”. For the same compound, the “Decomposition efficiency: ratio of each glycoside/aglycon within its isoflavone family” value (Crude diglycosidase; defatted soybean, substrate concentration 5%, heat treatment of enzyme no, reaction time 3 h) was “not detected”, the “Decomposition efficiency: ratio of each glycoside/aglycon within its isoflavone family” value (Crude diglycosidase; defatted soybean, substrate concentration 5%, heat treatment of enzyme no, reaction time 6 h) was “not detected” and the “Decomposition efficiency: ratio of each glycoside/aglycon within its isoflavone family” value (Crude diglycosidase; defatted soybean, substrate concentration 5%, heat treatment of enzyme yes, reaction time 6 h) was “not detected”. For the same compound, the “Decomposition efficiency: ratio of each glycoside/aglycon within its isoflavone family” value (Crude diglycosidase; defatted soybean, substrate concentration 10%, heat treatment of enzyme no, reaction time 0 h) was “not detected” and the “Decomposition efficiency: ratio of each glycoside/aglycon within its isoflavone family” value (Crude diglycosidase; defatted soybean, substrate concentration 10%, heat treatment of enzyme no, reaction time 1 h) was “not detected”.
